We go through 13 compounds from PubChem BioAssay AID1845210 (Molecular Pharmacology Branch, DTP, NCI, 2023).

Each structure is given as a SMILES string. pIC50: −log10 of the molar value. Where “and” joins values, the source holds several entries; their conditions need not be identical. Identical values can stand only once. Some results are limits rather than exact numbers.

For the experiment, the system named is NCI-H226 complex tumor spheroids, viability. In words: Anticancer human tumor NCI-H226 cell line growth inhibition.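 As to all read-outs here: spheroids exposed to compound for 7 days.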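 As to viability, T/C: 100% = DMSO vehicle control viability.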 The note with it: for viability, T/C: stronger effect = lower value. The text has this:
Multicellular complex tumor spheroid response to DNA repair inhibitors in combination with DNA-damaging drugs
This study explores the anticancer activities of DNA-damaging drugs and inhibitors of DNA damage repair, both as single agents and in combinations. Complex tumor spheroids comprised of malignant cells, endothelial cells and mesenchymal stem cells served as an in vitro model for human solid tumors. This model system incorporates physiologically relevant features and patient-derived or established malignant cell lines with clinically relevant genetic alterations from many tumor types. Twenty-six patient-derived or established malignant cell lines were evaluated representing sarcoma, melanoma, small cell lung cancer (SCLC), non-small cell lung cancer (NSCLC), as well as bladder, ovarian and pancreatic cancers. The concentration ranges selected for each drug and investigational agent were based upon clinically achievable concentrations if the clinical Cmax of the agent was known.
Compounds. The drugs and compounds olaparib (NSC753686), talazoparib (NSC767125), berzosertib (NSC777718), elimusertib (NSC800525), nedisertib (NSC802822), VX-984 (NSC792969), AZD-1390 (NSC803789), temozolomide (NSC362856), topotecan (NSC609699), trabectedin (NSC813783), staurosporine (NSC755774), and gemcitabine (NSC613327) were obtained from the National Cancer Institute (NCI) Developmental Therapeutics Program Chemical Repository. The FDA-approved anticancer drug set is available from the Developmental Therapeutics Program at https://dtp.cancer.gov/organization/dscb/obtaining/available_plates.htm. […] The stock solutions were prepared in dimethyl sulfoxide (DMSO, Sigma-Aldrich, St. Louis, MO, cat. D2650) at 400-fold the tested concentration and stored at -70 degrees C. Prior to their use, the stock solutions were diluted in fresh medium and the final DMSO concentration in the assay was 0.25% (v/v). All drugs and investigational agents were tested over a range starting from a high concentration at or near the clinical Cmax and decreasing in half-log increments. If the clinical Cmax for an agent had not been determined, the highest concentration tested was 10 microM.
Cell Lines. The patient-derived cancer cell (PDC) lines: 156681-154-R-J1-PDC, 283228-195-R-J1-PDC, 287954-098-R-J1-PDC, 292921-168-R-J2-PDC, 349418-098-R-PDC, 425362-245-T-J1-PDC, 556581-035-R-J1-PDC, and BL0293-F563-PDC were received from the NCI Patient-Derived Models Repository (PDMR, https://pdmr.cancer.gov). The established cell lines HS-SY-2 (RRID:CVCL_8719), MPNST, and SYO-1 (RRID:CVCL_7146) were obtained from the Sloan Kettering Institute. The alveolar soft parts sarcoma cell line ASPS-1 (RRID:CVCL_S738) was established at the NCI and grown from internal seed stocks. The following established cell lines were purchased from the American Type Culture Collection (ATCC, Manassas, VA): G-401 (ATCC, cat. CRL-1441, RRID:CVCL_0270), SW982 (ATCC, cat. HTB-93, RRID:CVCL_1734), VA-ES-BJ (ATCC, cat. CRL-2138, RRID:CVCL_1785), NCI-H719 (ATCC, cat. CRL-5837, RRID:CVCL_1582), NCI-H196 (ATCC, cat. CRL-5823, RRID:CVCL_1509), NCI-H841 (ATCC, cat. CRL-5845, RRID:CVCL_1595), NCI-H1618 (ATCC, cat. CRL-5879, RRID:CVCL_1480), NCI-H1876 (ATCC, cat. CRL-5902, RRID:CVCL_1503), DMS 114 (ATCC, cat. CRL-2066; RRID:CVCL_1174), NCI-H211 (ATCC, cat. CRL-5824; RRID:CVCL_1529), and SW 1271 (ATCC, cat. CRL-2177, RRID:CVCL_1716). The small cell lung cancer cell line COR-L88 was purchased from Sigma-Aldrich (cat. 92031917-1VL, RRID:CVCL_1141). The non-small cell lung cancer cell lines NCI-H226 (RRID:CVCL_1544) and NCI-H322M (RRID:CVCL_1557) were established at the NCI and grown from internal seed stocks. Pooled donor human umbilical vein endothelial cells (HUVEC, Lonza, cat. CC-2519) and human mesenchymal stem cells (hMSC, Lonza, cat. PT-2501) were purchased from Lonza (Walkersville, MD).
Cell Culture. All cells were maintained in an incubator at 37 degrees C and 5% CO2 with 95% humidity. […]

Setting [1] is: compound alone, run of 12/02/2019.
The mark [2] stands for this setting: compound alone, run of 12/12/2019.

Turning to `CC(C)n1c(=O)n(C)c2cnc3cc(F)c(-c4ccc(OCCCN5CCCCC5)nc4)cc3c21`, the viability, T/C (commonly the ratio of treated to control) was 99.6% and 101% and 93.1% (compound 0.0316 µM); 103% and 96.9% and 104% (compound 0.1 µM); 103% and 112% and 102% (compound 0.316 µM); 111% and 98% and 84.2% (compound 1 µM); 107% and 97.5% and 102% (compound 3.16 µM). Under “curve of compound”, the pIC50 (as a rule, the IC50 on a negative log10 scale, so that one unit is a factor of ten) is < 5.00 and 5.24 and 5.12.
As for `CC1COCCN1c1cc(-c2ccnn2C)c2ccnc(-c3ccn[nH]3)c2n1` (stereo not drawn), the viability, T/C (compound 0.0316 µM) was 93.9% and 94.7% and 94.8%; the viability, T/C (compound 0.1 µM) was 102% and 91% and 82.2%; the viability, T/C (compound 0.316 µM) was 86% and 74% and 68.6%; the viability, T/C (compound 1 µM) is 60.4% and 53.3% and 47.3%; the viability, T/C (compound 3.16 µM) is 52.5% and 44.6% and 45.4%; the viability, T/C (compound 10 µM) is 42.9% and 39.2% and 35.2%. The pIC50 (curve of compound) was 5.56 and 5.82 and 5.95.
Take `CC[C@@]1(O)C(=O)OCc2c1cc1n(c2=O)Cc2cc3c(CN(C)C)c(O)ccc3nc2-1`: the viability, T/C (compound 0.003 µM) is 94.5% [middle of 10 runs]; the viability, T/C (compound 0.03 µM) is 86% [middle of 10 runs]; the viability, T/C (compound 0.0949 µM) was 86.1% [middle of 10 runs]; the viability, T/C (compound 0.3 µM) is 66.8% [middle of 10 runs]. The pIC50 is, setting by setting: under setting [1], less than 6.52; under setting [2], less than 6.52.
Regarding `CNCc1ccc(-c2cc(-c3nc(-c4ccc(S(=O)(=O)C(C)C)cc4)cnc3N)on2)cc1`, the viability, T/C by setting is: (compound 0.00949 µM) 109% and 97.8% and 83.3%; (compound 0.03 µM) 126% and 123% and 90.1%; (compound 0.0949 µM) 132% and 112% and 106%; (compound 0.3 µM) 124% and 127% and 118%; (compound 0.949 µM) 20% and 109% (2×); (compound 3 µM) 0.4% and 2.72% and 0.64%. The pIC50 (curve of compound) was 6.17 and 5.74 and 5.77.
On to `COc1cc(C)[nH]c(=O)c1CN1CCc2c(Cl)cc(C(OC)C3COC3)c(Cl)c2C1=O` (stereo not drawn), for which the viability, T/C runs as follows: (compound 0.0316 µM) 90.2% and 107% and 114%; (compound 0.1 µM) 113% and 115% and 102%; (compound 0.316 µM) 109% and 125% and 108%; (compound 1 µM) 110% and 115% and 102%; (compound 3.16 µM) 114% and 134% and 116%; (compound 10 µM) 116% and 120% and 108%. Also, where the note is “curve of compound”, the pIC50 is less than 5.00.
`COc1cc2c(cc1O)CCNC21CSC2c3c(OC(C)=O)c(C)c4c(c3C(COC1=O)N1C(O)C3Cc5cc(C)c(OC)c(O)c5C(C21)N3C)OCO4` (stereo not drawn): the viability, T/C reads like this: (compound 30 pM) 104% [middle of 10 runs]; (compound 0.003 µM) 1.23% [middle of 10 runs]. In addition, under setting [2], the IC50 (commonly the concentration at which inhibition is half-maximal) was 1.76 nM [middle of 10 runs].
Consider `COc1ccc([C@@H](O)c2cc(-c3ncnc4cc(N5CCOCC5)ccc34)c(F)cc2Cl)nn1`, for which the viability, T/C runs as follows: (compound 0.0316 µM) 96.6% and 91% and 98.2%; (compound 0.1 µM) 93.2% and 99.9% and 94.4%; (compound 0.316 µM) 89.3% and 96.3% and 93.6%; (compound 1 µM) 80.3% and 71.2% and 82.1%; (compound 3.16 µM) 54.6% and 52.2% and 55.1%; (compound 10 µM) 39.5% and 35.6% (2×). Also, under “curve of compound”, the pIC50 is 5.33 and 5.52 and 5.37.
For the compound `Cc1cc(C)c(CNC(=O)c2cc(-c3ccc(CN4CCOCC4)cc3)cc3c2cnn3C2CCCC2)c(=O)[nH]1`, the viability, T/C was 100% (2×) and 94.5% (compound 0.0316 µM); 102% and 112% and 103% (compound 0.1 µM); 99% and 107% and 112% (compound 0.316 µM); 83.4% and 110% and 97.2% (compound 1 µM); 91% and 115% and 98.1% (compound 3.16 µM); 91.5% and 118% and 100% (compound 10 µM). Moreover, where the note is “curve of compound”, the pIC50 is less than 5.00.
Turning to `Cc1sc2c(c1C)C(c1ccc(Cl)cc1)=NC(CC(=O)Nc1ccc(O)cc1)c1nnc(C)n1-2` (stereo not drawn), the viability, T/C reads like this: (compound 0.00949 µM) 80.2% and 99.2% and 85.2%; (compound 0.03 µM) 72.7% and 73.6% and 78.2%; (compound 0.0949 µM) 79.5% and 64.3% and 96.1%; (compound 0.3 µM) 57.7% and 57.8% and 77.4%; (compound 0.949 µM) 47.1% and 50.4% and 73.6%; (compound 3 µM) 38.5% and 49.4% and 63.2%. For the same compound, the pIC50 (curve of compound) is 6.23 and < 5.52.
For `Cn1ncnc1[C@H]1c2n[nH]c(=O)c3cc(F)cc(c23)N[C@@H]1c1ccc(F)cc1`, the viability, T/C runs as follows: (compound 0.00949 µM) 96.2% and 89.2% and 90.4%; (compound 0.03 µM) 94.6% and 95.9% and 92.7%; (compound 0.0949 µM) 87.4% and 93.6% and 101%; (compound 0.3 µM) 89.4% and 101% and 88.2%; (compound 0.949 µM) 88.6% and 84.1% and 87%; (compound 3 µM) 94.2% and 99.2% and 107%. For the setting “curve of compound”, the pIC50 is less than 5.52.
As to `Cn1nnc2c(C(N)=O)ncn2c1=O`, the viability, T/C by setting is: (compound 3.16 µM) 112% [middle of 10 runs]; (compound 10 µM) 108% [middle of 10 runs]; (compound 31.6 µM) 110% [middle of 10 runs]; (compound 100 µM) 109% [middle of 10 runs]. Moreover, the pIC50 under setting [1] is less than 4.00.
On to `O=C(c1cc(Cc2n[nH]c(=O)c3ccccc23)ccc1F)N1CCN(C(=O)C2CC2)CC1`, for which the viability, T/C is 98.6% and 105% and 103% (compound 0.0949 µM); 97.1% and 100% and 96.8% (compound 0.3 µM); 104% (2×) and 101% (compound 0.949 µM); 98.5% and 99.3% and 93.9% (compound 3 µM); 96.9% and 87.4% and 106% (compound 9.49 µM); 92.1% and 79% and 86.7% (compound 30 µM). Besides, the pIC50 (curve of compound) is less than 4.52.
In the case of `[2H]c1nc(C)nc([2H])c1-c1cc(NC[C@@H](C)c2cccc3c(C(=O)NC)ccnc23)ncn1`, the viability, T/C by setting is: (compound 0.0316 µM) 93.8% and 95.7% and 112%; (compound 0.1 µM) 101% and 95.3% and 97.7%; (compound 0.316 µM) 103% and 106% and 88.5%; (compound 1 µM) 107% and 106% and 93.5%; (compound 3.16 µM) 101% and 99.3% and 88.1%; (compound 10 µM) 111% and 114% and 106%. Besides, where the note is “curve of compound”, the pIC50 is less than 5.00.
